From patent US8394858B2, “Cyclohexane derivatives and uses thereof” (Novartis AG, priority 2009, dated 2013)
pIC50: −log10 of the molar value.

molecular target: T1, human acetyl-CoA carboxylase 2 (ACC2) (Homo sapiens, UniProt O00763); assay: Acetyl-CoA carboxylase enzyme assay (malonyl-CoA formation by LC/MS/MS); format: biochemical; conditions: recombinant human ACC2 (amino acids 144 to 2458), 50 μM acetyl-CoA, 120 μM ATP, 2 mM KHCO3
T1 construct: The cDNA encoding amino acids 144 to 2458 of human acetyl-CoA carboxylase 2; made in house; host or cells: Sf9 insect cells (baculovirus, pFastBac1)
Source text: The cDNA encoding amino acids 144 to 2458 of human acetyl-CoA carboxylase 2 (ACC2, GenBank Accession # NM_001093) was cloned into the SalI and NotI sites of pFastBac1 (Invitrogen; Carlsbad, Calif.). The resulting plasmid was used to generate a recombinant ACC2 baculovirus that was amplified and titered according to the protocols in the Bac-to-Bac baculovirus expression system manual (Invitrogen). The titered virus was used to infect Sf9 cells grown in Ex-Cell 420 serum-free medium (JRH Biosciences; Lenexa, Kans.). At 48 hours post-infection, the cells were harvested and stored at −80° C. until purification. ACC2 was purified using ammonium sulfate precipitation and anion exchange chromatography.
The enzymatic assay was run as follows: 30 μL of reaction buffer (100 mM HEPES pH 7.5, 20 mM MgCl2, 20 mM potassium citrate, 2 mM DTT) was added to a 384-well microtiter plate followed by 2 μL of the test compound (or 100% DMSO control). ACC2 protein (10 μL of a 50 nM working solution) was added to plate, which was incubated at room temperature for 15 minutes. A 30 μL addition of substrate solution (50 μM acetyl-CoA, 120 μM ATP, 2 mM KHCO3) was used to initiate the reactions which were quenched with 6% acetic acid (40 μL). ACC catalyzed malonyl-CoA formation was detected by LC/MS/MS using a Cohesive Technologies LX Series multiplex LC/MS/MS system configured with four binary pumps (Agilent Technologies; Palo Alto, Calif.), a dual arm autosampler (Leap Technologies; Cary, N.C.), and one Quattro Micro triple quadrupole mass spectrometer (Waters, Milford, Mass.), all run by Aria Software version 1.5 (Cohesive Technologies; Franklin, Mass.). Four samples were injected (20 μL) onto four Phenosphere NEXT C18 30×2 mm 5 μm columns (Phenomenex; Torrance, Calif.), eluted by four separate pumps, running identical gradients, through a column switching manifold with the one outlet fitted to the electrospray (ESI) source. Malonyl-CoA was eluted with 5 mM ammonium acetate, pH 4.5 (Buffer A) and 100% acetonitrile (Buffer B) via a step gradient. Argon was used as the collision gas and the following species were monitored via MRM detection: malonyl-CoA (853.8>346.9), internal standard (A: [^13C3]-malonyl-CoA, 857>350). The lower limit of detection is 0.3 uM for malonyl-CoA in this assay.

T1 sequence (O00763 144-2458): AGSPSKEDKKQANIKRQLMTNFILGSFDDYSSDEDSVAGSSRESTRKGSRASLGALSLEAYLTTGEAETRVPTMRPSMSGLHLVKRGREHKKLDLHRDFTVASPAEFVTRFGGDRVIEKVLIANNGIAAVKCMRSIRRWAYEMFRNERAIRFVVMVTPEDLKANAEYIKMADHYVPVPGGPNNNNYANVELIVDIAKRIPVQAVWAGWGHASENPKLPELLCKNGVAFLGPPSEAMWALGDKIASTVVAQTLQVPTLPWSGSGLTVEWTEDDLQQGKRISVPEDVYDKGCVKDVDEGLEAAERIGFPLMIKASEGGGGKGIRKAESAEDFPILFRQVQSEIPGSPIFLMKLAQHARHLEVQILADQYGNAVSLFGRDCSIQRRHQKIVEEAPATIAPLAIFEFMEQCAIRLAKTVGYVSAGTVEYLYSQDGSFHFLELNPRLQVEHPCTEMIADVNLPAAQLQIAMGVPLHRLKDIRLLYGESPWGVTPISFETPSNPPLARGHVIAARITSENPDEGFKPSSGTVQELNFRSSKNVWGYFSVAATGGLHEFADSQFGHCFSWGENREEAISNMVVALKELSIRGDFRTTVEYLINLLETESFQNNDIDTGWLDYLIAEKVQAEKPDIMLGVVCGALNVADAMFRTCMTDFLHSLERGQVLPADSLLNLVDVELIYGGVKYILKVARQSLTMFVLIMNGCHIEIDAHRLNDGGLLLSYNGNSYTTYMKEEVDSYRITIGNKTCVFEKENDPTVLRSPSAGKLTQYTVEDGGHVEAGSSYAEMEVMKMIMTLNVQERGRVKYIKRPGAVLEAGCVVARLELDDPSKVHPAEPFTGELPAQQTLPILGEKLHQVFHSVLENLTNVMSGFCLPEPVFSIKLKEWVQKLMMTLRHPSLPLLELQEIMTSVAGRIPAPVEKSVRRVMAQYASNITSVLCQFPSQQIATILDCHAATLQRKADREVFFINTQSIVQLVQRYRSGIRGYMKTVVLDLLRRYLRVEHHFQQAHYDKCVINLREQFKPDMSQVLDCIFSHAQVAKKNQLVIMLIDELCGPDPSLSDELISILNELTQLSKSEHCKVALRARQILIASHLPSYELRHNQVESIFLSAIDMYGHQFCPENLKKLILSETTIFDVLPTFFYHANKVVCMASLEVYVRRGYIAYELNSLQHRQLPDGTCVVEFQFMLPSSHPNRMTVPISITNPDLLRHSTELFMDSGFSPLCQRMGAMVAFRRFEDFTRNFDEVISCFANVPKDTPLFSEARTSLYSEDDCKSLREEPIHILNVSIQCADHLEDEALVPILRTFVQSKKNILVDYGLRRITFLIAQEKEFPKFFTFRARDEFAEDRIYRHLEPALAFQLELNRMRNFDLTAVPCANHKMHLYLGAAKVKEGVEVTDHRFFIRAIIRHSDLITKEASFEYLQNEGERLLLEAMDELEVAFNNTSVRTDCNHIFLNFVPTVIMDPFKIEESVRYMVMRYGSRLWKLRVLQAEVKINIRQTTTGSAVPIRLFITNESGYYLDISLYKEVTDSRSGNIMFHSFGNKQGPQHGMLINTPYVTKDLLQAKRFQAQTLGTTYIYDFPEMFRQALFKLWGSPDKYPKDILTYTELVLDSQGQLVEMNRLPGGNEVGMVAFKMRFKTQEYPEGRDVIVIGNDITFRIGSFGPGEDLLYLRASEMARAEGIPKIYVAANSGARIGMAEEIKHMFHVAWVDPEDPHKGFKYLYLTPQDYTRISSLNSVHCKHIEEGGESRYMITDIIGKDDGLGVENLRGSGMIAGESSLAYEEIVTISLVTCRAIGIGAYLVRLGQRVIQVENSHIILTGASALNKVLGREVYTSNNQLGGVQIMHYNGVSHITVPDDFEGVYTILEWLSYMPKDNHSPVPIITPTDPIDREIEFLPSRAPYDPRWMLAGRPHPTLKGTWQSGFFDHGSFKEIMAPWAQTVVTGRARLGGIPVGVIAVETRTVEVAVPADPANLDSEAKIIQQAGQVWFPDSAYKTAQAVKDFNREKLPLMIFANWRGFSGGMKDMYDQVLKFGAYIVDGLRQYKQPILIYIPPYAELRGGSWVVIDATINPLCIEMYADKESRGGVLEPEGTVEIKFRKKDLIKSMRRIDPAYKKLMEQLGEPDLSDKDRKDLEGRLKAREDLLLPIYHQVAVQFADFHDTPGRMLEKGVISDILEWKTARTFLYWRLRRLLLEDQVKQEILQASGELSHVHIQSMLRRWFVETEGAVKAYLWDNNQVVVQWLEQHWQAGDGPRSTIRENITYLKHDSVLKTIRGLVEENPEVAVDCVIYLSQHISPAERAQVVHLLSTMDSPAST

pIC50	Compound
7.60	CC(C)(O)[C@@H](NC(=O)[C@H]1CC[C@H](NS(=O)(=O)c2ccc(C(F)(F)F)cc2)CC1)c1ccccc1 [Example 1, (1r,4S)—N—((S)-2-Hydroxy-2-methyl-1-phenylpropyl)-4-(4-(trifluoromethyl)phenylsulfonamido)cyclohexanecarboxamide]
7.03	O=C(N[C@@H](c1ccccc1)C(F)(F)F)[C@H]1CC[C@H](NS(=O)(=O)c2ccc(C(F)(F)F)cc2)CC1 [Example 72]
7.05	C[C@H](O)[C@@H](NC(=O)[C@H]1CC[C@H](NS(=O)(=O)c2ccc(C(F)(F)F)cc2)CC1)c1ccccc1 [Example 171, (1r,4S)—N-((1S,2R)-2-Hydroxy-1-phenylpropyl)-4-(4-(trifluoromethyl)phenylsulfonamido)cyclohexancarboxamide]
7.60	Cc1[nH]cnc1-c1ccc(S(=O)(=O)N[C@H]2CC[C@H](C(=O)N[C@H](C)c3ccc(F)cc3)CC2)cc1 [Example 339]
7.28	C[C@@H](NC(=O)[C@H]1CC[C@H](NS(=O)(=O)c2ccc(-c3ccc(CN4CCOCC4)cc3)cc2)CC1)c1ccc(F)cc1 [Example 359]
8.00	C[C@@H](NC(=O)[C@H]1CC[C@H](NS(=O)(=O)c2ccc(-c3ccc(CNCC(=O)O)cc3)cc2)CC1)c1ccc(F)cc1 [Example 370]
8.00	C[C@@H](NC(=O)[C@H]1CC[C@H](NS(=O)(=O)c2ccc(-c3ccc(CCN)cc3)cc2)CC1)c1ccc(F)cc1 [Example 378]
8.00	C[C@@H](NC(=O)[C@H]1CC[C@H](NS(=O)(=O)c2ccc(-c3ccc(OCCN4CCOCC4)cc3)cc2)CC1)c1ccc(F)cc1 [Example 385]
8.00	CC(C)(O)[C@@H](NC(=O)[C@H]1CC[C@H](NS(=O)(=O)c2ccc(-c3ccccc3)cc2)CC1)c1ccccc1 [Example 395]
7.05	O=C(O)CCc1ccc(-c2ccc(S(=O)(=O)N[C@H]3CC[C@H](C(=O)N4CCC[C@@H]4c4ccc(F)cc4)CC3)cc2)cc1 [Example 410]
8.00	O=C(O)CCc1ccc(-c2ccc(S(=O)(=O)N[C@H]3CC[C@H](C(=O)N4CCN(c5ccccn5)CC4c4ccccc4)CC3)cc2)cc1 (some centres unmarked) [Example 414]
7.60	O=C(O)CCc1ccc(-c2ccc(S(=O)(=O)N[C@H]3CC[C@H](C(=O)N4CCOC[C@@H]4c4ccccc4)CC3)cc2)cc1 [Example 419]
6.11	O=C1CN(C(=O)[C@H]2CC[C@H](NS(=O)(=O)c3ccc(-c4ccccc4)cc3)CC2)C(c2ccccc2)CN1 (some centres unmarked) [Example 428]
7.40	CC(C)(O)[C@@H](NC(=O)[C@]1(C)CC[C@@H](NS(=O)(=O)c2ccc(C(F)(F)F)cc2)CC1)c1ccccc1 [Example 448, (1r,4S)—N—((S)-2-Hydroxy-2-methyl-1-phenylpropyl)-1-methyl-4-(4-(trifluoromethyl)phenylsulfonamido)cyclohexanecarboxamide]
